Test results: patent US12157741B2, “Macrocyclic inhibitors of DYRK1A” (DANA-FARBER CANCER INSTITUTE, INC., priority 2018, dated 2024)
Like-named read-outs stand apart in the source and are kept apart here.

Experiments:
Format in all cases: binding
various enzymes [1] = biological target: various enzymes (Homo sapiens, UniProt O94806); conditions: compound 1 uM
Method: (§1) Ambit profiling was conducted in accordance with the manufacturer's instructions.

various enzymes [2] = biological target: various enzymes (Homo sapiens, UniProt P00519, H396P); conditions: compound 1 uM
Method: as §1

various enzymes [3] = biological target: various enzymes (Homo sapiens, UniProt Q9UKE5); conditions: compound 1 uM
Method: as §1

various enzymes [4] = biological target: various enzymes (Homo sapiens, UniProt P30291); conditions: compound 1 uM
Method: as §1

various enzymes [5] = biological target: various enzymes (Homo sapiens, UniProt Q52WX2); conditions: compound 1 uM
Sequence of various enzymes (Homo sapiens, UniProt Q52WX2) (Q52WX2 whole entry): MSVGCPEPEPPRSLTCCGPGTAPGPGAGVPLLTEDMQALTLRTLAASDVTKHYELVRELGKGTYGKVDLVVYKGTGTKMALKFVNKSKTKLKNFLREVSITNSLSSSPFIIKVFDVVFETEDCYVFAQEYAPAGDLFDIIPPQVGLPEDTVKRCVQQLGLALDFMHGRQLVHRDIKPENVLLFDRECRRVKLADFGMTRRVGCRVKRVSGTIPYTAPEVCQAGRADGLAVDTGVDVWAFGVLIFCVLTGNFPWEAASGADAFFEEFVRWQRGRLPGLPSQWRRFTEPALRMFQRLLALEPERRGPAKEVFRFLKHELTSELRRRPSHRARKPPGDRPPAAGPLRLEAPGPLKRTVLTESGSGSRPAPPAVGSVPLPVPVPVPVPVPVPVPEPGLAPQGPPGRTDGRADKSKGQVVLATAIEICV
Method: as §1

various enzymes [6] = biological target: various enzymes (Homo sapiens, UniProt P45984); conditions: compound 1 uM
Sequence of various enzymes (Homo sapiens, UniProt P45984) (P45984 whole entry): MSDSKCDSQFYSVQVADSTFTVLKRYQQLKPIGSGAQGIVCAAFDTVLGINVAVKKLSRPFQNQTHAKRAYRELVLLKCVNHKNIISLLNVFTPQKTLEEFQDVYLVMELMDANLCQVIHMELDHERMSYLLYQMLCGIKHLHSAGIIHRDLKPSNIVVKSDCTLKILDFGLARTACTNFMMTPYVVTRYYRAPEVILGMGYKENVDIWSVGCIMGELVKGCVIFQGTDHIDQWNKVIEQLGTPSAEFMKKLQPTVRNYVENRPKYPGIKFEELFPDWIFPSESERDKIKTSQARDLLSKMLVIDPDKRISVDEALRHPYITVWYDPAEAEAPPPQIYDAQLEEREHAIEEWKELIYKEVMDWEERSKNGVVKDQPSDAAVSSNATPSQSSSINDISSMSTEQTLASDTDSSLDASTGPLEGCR
Method: as §1

various enzymes [7] = biological target: various enzymes (Homo sapiens, UniProt Q96PN8); conditions: compound 1 uM
Method: as §1

various enzymes [8] = biological target: various enzymes (Homo sapiens, UniProt Q15746); conditions: compound 1 uM
Method: as §1

various enzymes [9] = biological target: various enzymes (Homo sapiens, UniProt Q9UBE8); conditions: compound 1 uM
Method: as §1

various enzymes [10] = biological target: various enzymes (Homo sapiens, UniProt Q2M2I8); conditions: compound 1 uM
Method: as §1

various enzymes [11] = biological target: various enzymes (Homo sapiens, UniProt P53779); conditions: compound 1 uM
Sequence of various enzymes (Homo sapiens, UniProt P53779) (P53779 whole entry): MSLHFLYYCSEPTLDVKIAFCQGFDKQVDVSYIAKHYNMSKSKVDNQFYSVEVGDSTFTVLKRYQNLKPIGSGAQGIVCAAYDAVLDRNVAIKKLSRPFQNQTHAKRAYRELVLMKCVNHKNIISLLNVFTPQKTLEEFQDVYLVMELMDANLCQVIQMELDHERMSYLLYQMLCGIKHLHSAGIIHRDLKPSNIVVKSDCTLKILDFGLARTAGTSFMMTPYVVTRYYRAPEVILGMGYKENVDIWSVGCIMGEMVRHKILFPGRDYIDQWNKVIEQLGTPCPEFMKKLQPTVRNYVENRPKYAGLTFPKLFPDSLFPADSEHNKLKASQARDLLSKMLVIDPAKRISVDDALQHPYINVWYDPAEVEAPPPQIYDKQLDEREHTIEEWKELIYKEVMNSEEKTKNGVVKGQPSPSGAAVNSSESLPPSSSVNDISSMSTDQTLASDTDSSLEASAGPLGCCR
Method: as §1

various enzymes [12] = biological target: various enzymes (Homo sapiens, UniProt P15735); conditions: compound 1 uM
Sequence of various enzymes (Homo sapiens, UniProt P15735) (P15735 whole entry): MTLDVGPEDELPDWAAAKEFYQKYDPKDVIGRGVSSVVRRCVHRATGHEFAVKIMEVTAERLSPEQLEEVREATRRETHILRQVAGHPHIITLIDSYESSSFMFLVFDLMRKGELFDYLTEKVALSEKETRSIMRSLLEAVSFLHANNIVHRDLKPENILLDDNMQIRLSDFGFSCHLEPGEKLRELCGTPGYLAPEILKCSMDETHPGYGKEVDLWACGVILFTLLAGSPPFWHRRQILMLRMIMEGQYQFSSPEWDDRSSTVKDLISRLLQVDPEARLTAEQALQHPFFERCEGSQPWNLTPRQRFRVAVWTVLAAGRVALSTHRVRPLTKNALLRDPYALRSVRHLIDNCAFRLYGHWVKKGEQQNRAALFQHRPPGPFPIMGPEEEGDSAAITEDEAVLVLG
Method: as §1

various enzymes [13] = biological target: T1, various enzymes (Homo sapiens, UniProt Q8IVH8); conditions: compound 1 uM
T1 sequence (Q8IVH8 1-894): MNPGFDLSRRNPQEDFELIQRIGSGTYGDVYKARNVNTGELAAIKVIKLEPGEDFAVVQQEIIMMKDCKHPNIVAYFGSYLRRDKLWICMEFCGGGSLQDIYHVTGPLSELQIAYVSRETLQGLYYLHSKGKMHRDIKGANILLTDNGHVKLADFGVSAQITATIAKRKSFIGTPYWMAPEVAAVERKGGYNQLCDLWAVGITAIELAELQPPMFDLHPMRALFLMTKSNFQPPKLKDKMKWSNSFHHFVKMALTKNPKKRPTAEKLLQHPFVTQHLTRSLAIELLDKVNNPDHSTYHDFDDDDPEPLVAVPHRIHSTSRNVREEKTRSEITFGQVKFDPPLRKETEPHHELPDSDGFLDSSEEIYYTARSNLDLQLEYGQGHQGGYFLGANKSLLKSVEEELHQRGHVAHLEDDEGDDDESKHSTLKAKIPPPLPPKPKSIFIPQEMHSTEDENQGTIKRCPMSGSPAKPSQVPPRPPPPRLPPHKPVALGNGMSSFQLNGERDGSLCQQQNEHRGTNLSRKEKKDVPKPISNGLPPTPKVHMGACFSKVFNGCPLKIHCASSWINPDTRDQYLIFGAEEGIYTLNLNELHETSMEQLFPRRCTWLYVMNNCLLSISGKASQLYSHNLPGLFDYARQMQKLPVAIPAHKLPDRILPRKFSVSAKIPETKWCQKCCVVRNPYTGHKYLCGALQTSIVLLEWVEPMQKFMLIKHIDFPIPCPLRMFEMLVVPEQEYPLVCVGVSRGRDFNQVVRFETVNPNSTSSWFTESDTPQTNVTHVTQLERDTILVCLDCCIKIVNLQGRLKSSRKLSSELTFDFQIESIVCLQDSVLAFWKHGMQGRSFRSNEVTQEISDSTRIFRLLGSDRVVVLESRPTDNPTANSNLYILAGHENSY
Method: as §1

various enzymes [14] = biological target: various enzymes (Homo sapiens, UniProt Q9NRH2); conditions: compound 1 uM
Method: as §1

various enzymes [15] = biological target: various enzymes (Homo sapiens, UniProt Q9UPE1); conditions: compound 1 uM
Method: as §1

various enzymes [16] = biological target: various enzymes (Homo sapiens, UniProt O95382); conditions: compound 1 uM
Method: as §1

various enzymes [17] = biological target: various enzymes (Homo sapiens, UniProt P35626); conditions: compound 1 uM
Method: as §1

various enzymes [18] = biological target: various enzymes (Homo sapiens, UniProt Q00537); conditions: compound 1 uM
Method: as §1

various enzymes [19] = biological target: various enzymes (Homo sapiens, UniProt P42336, E545K)
Method: as §1

various enzymes [20] = biological target: various enzymes (Homo sapiens, UniProt P36888, R834Q)
Method: as §1

various enzymes [21] = biological target: various enzymes (Homo sapiens, UniProt Q6ZWH5); conditions: compound 1 uM
Sequence of various enzymes (Homo sapiens, UniProt Q6ZWH5) (Q6ZWH5 whole entry): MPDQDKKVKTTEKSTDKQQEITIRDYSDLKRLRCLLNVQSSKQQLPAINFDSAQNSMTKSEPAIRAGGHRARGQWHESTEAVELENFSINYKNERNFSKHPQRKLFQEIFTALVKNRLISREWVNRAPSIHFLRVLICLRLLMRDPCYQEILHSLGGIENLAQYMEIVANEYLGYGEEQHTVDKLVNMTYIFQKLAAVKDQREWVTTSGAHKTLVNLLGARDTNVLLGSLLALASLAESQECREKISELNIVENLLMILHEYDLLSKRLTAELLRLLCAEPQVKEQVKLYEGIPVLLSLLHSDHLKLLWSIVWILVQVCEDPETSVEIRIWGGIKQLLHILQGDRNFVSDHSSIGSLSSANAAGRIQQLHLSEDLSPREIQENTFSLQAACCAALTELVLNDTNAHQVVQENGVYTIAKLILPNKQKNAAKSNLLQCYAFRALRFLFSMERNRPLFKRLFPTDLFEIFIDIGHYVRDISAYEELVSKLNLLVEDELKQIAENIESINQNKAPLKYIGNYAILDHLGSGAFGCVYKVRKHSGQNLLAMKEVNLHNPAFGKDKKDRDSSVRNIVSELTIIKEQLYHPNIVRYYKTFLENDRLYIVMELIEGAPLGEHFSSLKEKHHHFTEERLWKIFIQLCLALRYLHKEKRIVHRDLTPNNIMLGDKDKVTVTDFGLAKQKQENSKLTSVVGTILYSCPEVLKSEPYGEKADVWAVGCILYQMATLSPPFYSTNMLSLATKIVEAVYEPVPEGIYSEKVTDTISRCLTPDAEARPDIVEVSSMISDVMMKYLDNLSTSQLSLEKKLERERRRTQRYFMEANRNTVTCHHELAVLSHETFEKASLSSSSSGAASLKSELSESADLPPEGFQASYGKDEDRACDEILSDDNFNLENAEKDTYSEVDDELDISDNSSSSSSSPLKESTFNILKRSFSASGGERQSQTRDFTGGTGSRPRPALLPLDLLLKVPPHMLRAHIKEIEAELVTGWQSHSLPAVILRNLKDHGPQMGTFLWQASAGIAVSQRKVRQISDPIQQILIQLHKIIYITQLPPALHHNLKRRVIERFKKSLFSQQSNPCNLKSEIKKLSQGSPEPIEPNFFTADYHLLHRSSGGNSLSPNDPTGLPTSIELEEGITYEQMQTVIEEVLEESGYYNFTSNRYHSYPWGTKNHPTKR
Method: as §1

various enzymes [22] = biological target: various enzymes (Homo sapiens, UniProt P24941); conditions: compound 1 uM
Method: as §1

various enzymes [23] = biological target: various enzymes (Homo sapiens, UniProt Q6XUX3); conditions: compound 1 uM
Method: as §1

various enzymes [24] = biological target: various enzymes (Homo sapiens, UniProt O00444); conditions: compound 1 uM
Method: as §1

various enzymes [25] = biological target: various enzymes (Homo sapiens, UniProt Q96PY6); conditions: compound 1 uM
Method: as §1

various enzymes [26] = biological target: various enzymes (Homo sapiens, UniProt Q8WXR4); conditions: compound 1 uM
Method: as §1

various enzymes [27] = biological target: various enzymes (Homo sapiens, UniProt P57059); conditions: compound 1 uM
Method: as §1

various enzymes [28] = biological target: various enzymes (Homo sapiens, UniProt Q8TD19); conditions: compound 1 uM
Sequence of various enzymes (Homo sapiens, UniProt Q8TD19) (Q8TD19 whole entry): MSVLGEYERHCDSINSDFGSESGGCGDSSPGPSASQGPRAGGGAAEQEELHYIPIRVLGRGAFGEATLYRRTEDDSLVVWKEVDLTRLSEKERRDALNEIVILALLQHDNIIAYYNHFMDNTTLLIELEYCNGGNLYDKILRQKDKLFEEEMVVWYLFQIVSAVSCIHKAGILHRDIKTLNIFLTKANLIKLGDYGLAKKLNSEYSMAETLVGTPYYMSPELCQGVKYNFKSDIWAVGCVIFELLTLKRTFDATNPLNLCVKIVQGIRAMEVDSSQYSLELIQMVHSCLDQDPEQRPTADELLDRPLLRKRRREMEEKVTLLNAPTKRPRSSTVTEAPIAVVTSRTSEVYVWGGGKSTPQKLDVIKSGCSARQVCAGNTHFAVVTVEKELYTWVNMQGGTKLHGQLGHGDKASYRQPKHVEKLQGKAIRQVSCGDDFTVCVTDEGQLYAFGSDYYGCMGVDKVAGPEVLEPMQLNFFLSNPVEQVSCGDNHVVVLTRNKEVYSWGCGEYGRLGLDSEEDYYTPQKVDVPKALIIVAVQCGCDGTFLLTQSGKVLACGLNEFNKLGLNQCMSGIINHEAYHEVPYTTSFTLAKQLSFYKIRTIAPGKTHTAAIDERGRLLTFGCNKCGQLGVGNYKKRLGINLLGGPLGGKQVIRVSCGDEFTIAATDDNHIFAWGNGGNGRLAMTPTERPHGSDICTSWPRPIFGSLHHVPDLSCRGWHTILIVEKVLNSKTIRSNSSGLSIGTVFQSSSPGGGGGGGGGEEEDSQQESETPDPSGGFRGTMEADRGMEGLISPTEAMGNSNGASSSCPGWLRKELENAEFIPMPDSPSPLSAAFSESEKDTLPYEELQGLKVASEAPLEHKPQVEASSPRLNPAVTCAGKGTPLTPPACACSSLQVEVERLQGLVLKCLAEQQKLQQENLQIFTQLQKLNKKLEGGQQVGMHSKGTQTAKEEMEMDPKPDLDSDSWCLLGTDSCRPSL
Method: as §1

various enzymes [29] = biological target: various enzymes (Homo sapiens, UniProt Q07912); conditions: compound 1 uM
Method: as §1

various enzymes [30] = biological target: various enzymes (Homo sapiens, UniProt Q16620); conditions: compound 1 uM
Sequence of various enzymes (Homo sapiens, UniProt Q16620) (Q16620 32-822): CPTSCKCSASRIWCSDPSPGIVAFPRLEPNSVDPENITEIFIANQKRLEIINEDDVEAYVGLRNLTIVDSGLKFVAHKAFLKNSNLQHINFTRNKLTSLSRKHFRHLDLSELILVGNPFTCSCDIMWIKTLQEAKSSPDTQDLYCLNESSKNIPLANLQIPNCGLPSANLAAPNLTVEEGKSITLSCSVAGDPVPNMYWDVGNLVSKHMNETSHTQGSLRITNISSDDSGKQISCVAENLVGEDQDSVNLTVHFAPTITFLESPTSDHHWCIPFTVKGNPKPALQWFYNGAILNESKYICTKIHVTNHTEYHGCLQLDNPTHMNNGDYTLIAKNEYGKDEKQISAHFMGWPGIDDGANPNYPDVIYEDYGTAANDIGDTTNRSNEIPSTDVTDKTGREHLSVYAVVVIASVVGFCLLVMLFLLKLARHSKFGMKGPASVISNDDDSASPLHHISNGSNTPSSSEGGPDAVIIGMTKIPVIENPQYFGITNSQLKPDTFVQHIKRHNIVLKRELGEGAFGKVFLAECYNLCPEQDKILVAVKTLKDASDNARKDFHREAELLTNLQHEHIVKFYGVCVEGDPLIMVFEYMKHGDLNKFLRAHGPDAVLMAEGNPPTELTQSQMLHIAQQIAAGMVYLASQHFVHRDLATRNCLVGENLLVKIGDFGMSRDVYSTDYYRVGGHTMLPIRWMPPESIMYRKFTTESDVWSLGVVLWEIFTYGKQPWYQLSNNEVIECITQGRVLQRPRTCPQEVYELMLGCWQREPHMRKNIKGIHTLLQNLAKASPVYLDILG
Method: as §1

various enzymes [31] = biological target: various enzymes (Homo sapiens, UniProt Q14012); conditions: compound 1 uM
Sequence of various enzymes (Homo sapiens, UniProt Q14012) (Q14012 whole entry): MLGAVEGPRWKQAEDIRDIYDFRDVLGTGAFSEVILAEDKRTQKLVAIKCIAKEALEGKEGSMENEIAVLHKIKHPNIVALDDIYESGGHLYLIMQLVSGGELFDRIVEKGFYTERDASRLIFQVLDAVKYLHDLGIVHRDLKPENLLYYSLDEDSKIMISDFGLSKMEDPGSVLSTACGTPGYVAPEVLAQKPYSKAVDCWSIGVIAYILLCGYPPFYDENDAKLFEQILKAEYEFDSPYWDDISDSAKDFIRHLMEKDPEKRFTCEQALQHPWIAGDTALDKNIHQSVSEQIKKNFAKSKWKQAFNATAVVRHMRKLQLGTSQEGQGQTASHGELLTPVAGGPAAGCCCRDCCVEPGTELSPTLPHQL
Method: as §1

various enzymes [32] = biological target: various enzymes (Homo sapiens, UniProt P19525); conditions: compound 1 uM
Method: as §1

SMILES: CC(C)N1Cc2nn(C)cc2-c2cnc3[nH]cc(c3c2)-c2cn(nc2C(F)(F)F)CCCC1=O [Compound 45, (Z)-5-isopropyl-31-methyl-13-(trifluoromethyl)-11H,21H,31H-5-aza-2(3,5)-pyrrolo[2,3-b]pyridina-1(4,1),3(4,3)-dipyrazolacyclononaphan-6-one]
- Ambit profiling: PRKD3 (various enzymes [1]): 11
- Ambit profiling: ABL1(H396P)-nonphosphorylated (various enzymes [2]): 1.9
- Ambit profiling: ABL1(H396P)-phosphorylated (various enzymes [2]): 24
- Ambit profiling: TNIK (various enzymes [3]): 5.6
- Ambit profiling: WEE1 (various enzymes [4]): 73
- Ambit profiling: SBK1 (various enzymes [5]): 100
- Ambit profiling: JNK2 (various enzymes [6]): 21
- Ambit profiling: TSSK3 (various enzymes [7]): 90
- Ambit profiling: MYLK (various enzymes [8]): 37
- Ambit profiling: NLK (various enzymes [9]): 84
- Ambit profiling: AAK1 (various enzymes [10]): 40
- Ambit profiling: JNK3 (various enzymes [11]): 29
- Ambit profiling: PHKG2 (various enzymes [12]): 44
- Ambit profiling: MAP4K3 (various enzymes [13]): 18
- Ambit profiling: SNRK (various enzymes [14]): 100
- Ambit profiling: SRPK3 (various enzymes [15]): 13
- Ambit profiling: ASK2 (various enzymes [16]): 54
- Ambit profiling: GRK3 (various enzymes [17]): 100
- Ambit profiling: PCTK2 (various enzymes [18]): 19
- Ambit profiling: PIK3CA(E545K) (various enzymes [19]; compound 1 uM): 51
- Ambit profiling: FLT3(R834Q) (various enzymes [20]; compound 1 uM): 8.7
- Ambit profiling: NEK10 (various enzymes [21]): 97
- Ambit profiling: CDK2 (various enzymes [22]): 35
- Ambit profiling: RIPK5 (various enzymes [23]): 27
- Ambit profiling: PLK4 (various enzymes [24]): 29
- Ambit profiling: NEK1 (various enzymes [25]): 100
- Ambit profiling: MYO3B (various enzymes [26]): 6.7
- Ambit profiling: SIK (various enzymes [27]): 74
- Ambit profiling: NEK9 (various enzymes [28]): 100
- Ambit profiling: TNK2 (various enzymes [29]): 11
- Ambit profiling: TRKB (various enzymes [30]): 0.25
- Ambit profiling: CAMK1 (various enzymes [31]): 91
- Ambit profiling: PRKR (various enzymes [32]): 71

SMILES: COc1c2c(nn1C)CN(C(C)C)C(=O)CCCn1cc(c(C(F)(F)F)n1)-c1c[nH]c3ncc-2cc13 [Compound 50, (Z)-5-isopropyl-35-methoxy-31-methyl-13-(trifluoromethyl)-11H,21H,31H-5-aza-2(3,5)-pyrrolo[2,3-b]pyridina-1(4,1),3(4,3)-dipyrazolacyclononaphan-6-one]
- Ambit profiling: PRKD3 (various enzymes [1]): 15
- Ambit profiling: ABL1(H396P)-nonphosphorylated (various enzymes [2]): 0.2
- Ambit profiling: ABL1(H396P)-phosphorylated (various enzymes [2]): 3.9
- Ambit profiling: TNIK (various enzymes [3]): 13
- Ambit profiling: WEE1 (various enzymes [4]): 38
- Ambit profiling: SBK1 (various enzymes [5]): 98
- Ambit profiling: JNK2 (various enzymes [6]): 7.5
- Ambit profiling: TSSK3 (various enzymes [7]): 100
- Ambit profiling: MYLK (various enzymes [8]): 14
- Ambit profiling: NLK (various enzymes [9]): 84
- Ambit profiling: AAK1 (various enzymes [10]): 43
- Ambit profiling: JNK3 (various enzymes [11]): 8.8
- Ambit profiling: PHKG2 (various enzymes [12]): 53
- Ambit profiling: MAP4K3 (various enzymes [13]): 16
- Ambit profiling: SNRK (various enzymes [14]): 86
- Ambit profiling: SRPK3 (various enzymes [15]): 38
- Ambit profiling: ASK2 (various enzymes [16]): 98
- Ambit profiling: GRK3 (various enzymes [17]): 85
- Ambit profiling: PCTK2 (various enzymes [18]): 56
- Ambit profiling: PIK3CA(E545K) (various enzymes [19]): 74
- Ambit profiling: FLT3(R834Q) (various enzymes [20]): 0
- Ambit profiling: NEK10 (various enzymes [21]): 87
- Ambit profiling: CDK2 (various enzymes [22]): 62
- Ambit profiling: RIPK5 (various enzymes [23]): 95
- Ambit profiling: PLK4 (various enzymes [24]): 10
- Ambit profiling: NEK1 (various enzymes [25]): 71
- Ambit profiling: MYO3B (various enzymes [26]): 9
- Ambit profiling: SIK (various enzymes [27]): 57
- Ambit profiling: NEK9 (various enzymes [28]): 82
- Ambit profiling: TNK2 (various enzymes [29]): 1.9
- Ambit profiling: TRKB (various enzymes [30]): 0
- Ambit profiling: CAMK1 (various enzymes [31]): 53
- Ambit profiling: PRKR (various enzymes [32]): 84
